Source: US20250108139A1, “PEPTIDE UREA DERIVATIVE, PHARMACEUTICAL COMPOSITION CONTAINING PEPTIDE UREA DERIVATIVE, AND APPLICATION OF PEPTIDE UREA DERIVATIVE” (BIVISION PHARMACEUTICALS, INC, priority 2022, published 2025)

What was measured:
PSMA protein = PSMA protein (Homo sapiens (Human), UniProt Q04609); test: Affinity of DB compounds to PSMA protein using Biacore (Effect Example 3); settings: Biacore 8K, 15° C., 1:1 binding model; pKD=−Log KD
Description: The affinity of DB compounds to PSMA protein was tested using the Biacore 8K (Cytiva) instrument to detect ligand binding to PSMA protein (Sino Biological). PSMA protein was captured on an SA chip. Before fixing the ligand (flow paths 1 and 2, flow rate of 10 μL/min), PSMA protein (10 μg/mL, flow rate of 5 μL/min, injection time of 600 s) was fixed on flow path 2 using a flow buffer. The sensor surface was adjusted by continuously injecting 1 M NaCl three times in 50 mM NaOH. After each ligand injection, additional cleaning was performed using isopropanol in 1 M NaCl and 50 mM NaOH (flow paths 1 and 2, flow rate of 10 μL/min, injection time of 60 s).
All compounds were dissolved in 100% DMSO and diluted to 10 mM, then further diluted to the appropriate highest concentration in the analysis buffer (PBS, PH 7.4, 1 mM TCEP ([…]), 0.05% P20, 2% DMSO). The analysis was conducted under the following conditions: 15° C. analysis temperature; analysis steps=all set to LMW kinetics; cycle type=single cycle (90 s contact time, 1800 s dissociation time, 30 μL/min flow rate, flow paths 1 and 2); detection in flow=path 2-1. Data evaluation was performed using Biacore Insight Evaluation Software, fitting the data to a 1:1 binding model.
Biacore results are shown in Table 5: pKD=−Log KD, wherein KD is the binding affinity of the compound to PSMA protein measured by Biacore. It is expressed by Kd (M)=Kd (1/s)/Ka (1/Ms). A indicates pKD>8; B indicates 7<pKD<8; C indicates 6<pKD<7; D indicates pKD<6.

[1] = test system: PSMA-positive 22rv1 tumor-bearing mouse; test: 177Lu labeling and animal biodistribution experiment, gamma counter; type: in vivo; settings: 177Lu-labeled compound, 24 h after tail vein injection, n = 2
Description: Distribution in PSMA-positive tumor-bearing mouse tissues: Tumor-bearing animals (purchased from Shanghai Alamo Pharmaceutical Technology Co., Ltd.) were subcutaneously inoculated with 3×10^6 22rv1 cells (in 50% Matrigel, Corning) into the right shoulder region of 6-9 week old (Balb/c Nude) mouse. Once the tumors had grown to an appropriate size, ^177Lu-radiolabeled DB compounds were injected into the mouse via the tail vein (approximately 1.85 MBq-3.7 MBq/mouse, specific activity: 22423.82 Kbq/μg). After administration, the animals were euthanized using carbon dioxide inhalation at 24 hours. The blood and organs (blood, liver, kidney, muscle, tumor) were collected.
Blood was collected through the abdominal aorta and 100 μL was immediately quantified into designated centrifuge tubes (weighed). After collection, the organs were washed twice with deionized water, dried, placed in pre-weighed tubes, and weighed again to calculate the sample weight. Samples were measured on the day of collection. All blood and tissue samples were measured for radioactivity using a gamma counter. The results are shown in FIGS. 3, 4, 5, 6, 7, and Table 6.

[2] = target: PSMA-expressing cells (22Rv1) (Homo sapiens (Human), UniProt Q04609); test: Competitive binding against radiolabeled PSMA-617 ligand on 22Rv1 cells; settings: unlabeled compound vs radiolabeled PSMA-617 ligand, on ice 2 hours
Description: (1) 22Rv1 cells in the logarithmic growth phase were prepared into a cell suspension, and the cell density was adjusted to 1×10^4 cells/mL. 1 mL of the cell suspension was seeded into each well of a 24-well cell culture plate. The cells were cultured overnight in a 37° C. incubator.
(2) The cell culture medium was aspirated, and the cells were washed once with PBS. Then, 975 μL of additive-free medium was added.
(3) To each well, 25 μL of a fixed concentration of radiolabeled PSMA-617 ligand (final concentration in the medium: 2 μCi/mL) and different concentrations (final concentrations in the medium: 1000 ng/ml, 100 ng/mL, 10 ng/mL, 1 ng/mL, 0.1 ng/mL, 0.01 ng/mL, 0.001 ng/mL, 0 ng/ml) of the unlabeled test blocking compounds DB-18, DB-19, DB-13, E-3 were added.
(4) The cells were incubated on ice for 2 hours.
(5) The cells were washed three times with ice-cold PBS.
(6) The cells were lysed with 0.5 mL of 1 M sodium hydroxide, and washed twice with 0.5 mL PBS. The sodium hydroxide (0.5 mL) and PBS (0.5 mL×2) solutions were collected for uptake counting.

LNCaP cells = test: Cell killing, CCK8 assay; type: cell-based; settings: 177Lu-labeled, 45 μCi/mL, CCK8 on fifth day
Description: A. LNCaP cells in the logarithmic growth phase were prepared into a cell suspension, and the cell density was adjusted to 1×10^5 cells/mL. 1 mL of the cell suspension was seeded into each well of a 24-well cell culture plate. The cells were cultured for 24 hours in a 37° C. incubator.
B. The ^177Lu-labeled compound (^177Lu-E-3) was prepared in serum-containing culture medium at radioactive concentrations of 5, 15, and 45 μCi/mL (the unlabeled E-3 was prepared at a corresponding precursor concentration for 45 μCi/mL).
C. The experimental groups were treated with 1 mL/well of the above ^177Lu-labeled compound solutions, while the control group was treated with 1 mL/well of serum-containing culture medium.
D. The cells were cultured in the incubator for 24 hours, after which the medium was entirely replaced with fresh culture medium.
E. On the fifth day, cell proliferation in each group was monitored using an enhanced CCK8 assay kit.

[3] = Determination of Log P (n-octanol/water partition); type: physicochemical; settings: 177Lu-labeled compound, mean of three tubes
Description: Three EP tubes were prepared, each containing 0.1 mL of saturated n-octanol and 80 μL of ultrapure water. Then, 20 μL (approximately 1 MBq) of the ^177Lu-labeled DB-13, DB-18, and DB-19 compound solutions were added to the respective tubes. After shaking evenly, the tubes were centrifuged at room temperature (2000 r/min, 5 minutes, centrifugation radius of 10 cm). From each tube, 100 μL was taken from both the lipid layer and the aqueous layer, and the radioactivity counts per minute for both phases were measured. The Log P values were calculated, and their mean values were taken as the final result.

albumin in rat plasma = test: Plasma protein binding (PPB) test by ultrafiltration; type: in vitro ADME; settings: 177Lu-labeled compound
Description: The labeled compounds ^177Lu-E-3, 177Lu-DB-13, 177Lu-DB-18, and ^177Lu-DB-19 (1 μCi) were prepared in a reaction solution by adding 50 μL of PBS to achieve a concentration of 20 μCi/mL. 50 μL of the 20 μCi/mL reaction solution was added to 200 μL of plasma, repeated for 3 tubes. The mixture was mixed well and incubated at room temperature for 10 minutes, then added to ultrafiltration tubes and centrifuged at 13000 rpm for 45 minutes. Following this, 50 μL of normal saline was added and the samples were centrifuged again for 15 minutes. The upper chamber and the filtrate were respectively counted for radioactivity.
PPB=[(upper chamber counts−background counts]/(filtrate counts+upper chamber counts−2*background counts)]*100%.

PSMA-expressing cells (22Rv1), sequence (Q04609 whole entry): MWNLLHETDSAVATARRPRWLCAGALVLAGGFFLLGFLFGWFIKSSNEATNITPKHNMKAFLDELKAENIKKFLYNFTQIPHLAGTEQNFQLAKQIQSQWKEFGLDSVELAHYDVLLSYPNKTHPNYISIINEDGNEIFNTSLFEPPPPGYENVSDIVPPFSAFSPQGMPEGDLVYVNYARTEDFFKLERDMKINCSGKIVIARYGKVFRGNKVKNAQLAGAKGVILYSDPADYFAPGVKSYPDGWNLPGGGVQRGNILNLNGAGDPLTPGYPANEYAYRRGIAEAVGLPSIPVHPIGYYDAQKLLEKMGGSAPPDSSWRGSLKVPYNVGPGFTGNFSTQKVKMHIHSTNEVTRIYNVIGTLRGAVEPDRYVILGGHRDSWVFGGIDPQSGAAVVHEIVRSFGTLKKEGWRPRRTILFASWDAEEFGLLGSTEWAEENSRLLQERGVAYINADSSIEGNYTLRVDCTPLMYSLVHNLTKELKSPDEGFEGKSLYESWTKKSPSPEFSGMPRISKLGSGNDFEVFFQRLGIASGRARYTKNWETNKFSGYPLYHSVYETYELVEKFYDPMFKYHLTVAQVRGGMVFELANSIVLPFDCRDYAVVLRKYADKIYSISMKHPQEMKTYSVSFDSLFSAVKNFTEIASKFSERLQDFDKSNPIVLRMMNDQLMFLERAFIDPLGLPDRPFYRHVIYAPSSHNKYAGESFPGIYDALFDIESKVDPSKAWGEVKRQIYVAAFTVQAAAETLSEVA
PSMA protein, sequence (Q04609 whole entry): as above

Kd (PSMA protein): < 10 nM
Blood uptake [1]: 0.025 % ID/g
Kidney uptake [1]: 2.890 % ID/g
Liver uptake [1]: 0.115 % ID/g
Muscle uptake [1]: 0.060 % ID/g
Tumor uptake [1]: 16.195 % ID/g
IC50 [2]: 1.83 nM
logP [3]: -1.96
plasma protein binding ratio (albumin binding ratio) (albumin in rat plasma): 90.84%
Structure (SMILES): O=C(O)CC[C@H](NC(=O)NC(CCCCNC(=O)[C@H](Cc1ccc2ccccc2c1)NC(=O)[C@H]1CC[C@H](NC(=O)CCC(=O)NCC(=O)N2CN(C(=O)CNC(=O)CCC(=O)N[C@H]3CC[C@H](C(=O)N[C@@H](Cc4ccc5ccccc5c4)C(=O)NCCCC[C@H](NC(=O)N[C@@H](CCC(=O)O)C(=O)O)C(=O)O)CC3)CN(C(=O)CNC(=O)CN3CCN(CC(=O)O)CCN(CC(=O)O)CCN(CC(=O)O)CC3)C2)CC1)C(=O)O)C(=O)O (stereo partly shown) [DB-13]
cell-killing rate (LNCaP cells): 67%
